Measurements reported in ChEMBL document CHEMBL4622845, “p62/SQSTM1, a Central but Unexploited Target: Advances in Its Physiological/Pathogenic Functions and Small Molecular Modulators” (J Med Chem, 2020).
Counter-ions that a name gives are not always drawn. One block for each compound: values may come before it.

Experiments:
[1] = molecular target: T1, UDP-glucuronosyltransferase 1A1 (Homo sapiens, UniProt P22309); assay: Induction of UGT1A1 (unknown origin) assessed as increase in intracellular acidic autophagy vesicles formation; type: ADME, cell-based
T1 sequence (P22309 whole entry): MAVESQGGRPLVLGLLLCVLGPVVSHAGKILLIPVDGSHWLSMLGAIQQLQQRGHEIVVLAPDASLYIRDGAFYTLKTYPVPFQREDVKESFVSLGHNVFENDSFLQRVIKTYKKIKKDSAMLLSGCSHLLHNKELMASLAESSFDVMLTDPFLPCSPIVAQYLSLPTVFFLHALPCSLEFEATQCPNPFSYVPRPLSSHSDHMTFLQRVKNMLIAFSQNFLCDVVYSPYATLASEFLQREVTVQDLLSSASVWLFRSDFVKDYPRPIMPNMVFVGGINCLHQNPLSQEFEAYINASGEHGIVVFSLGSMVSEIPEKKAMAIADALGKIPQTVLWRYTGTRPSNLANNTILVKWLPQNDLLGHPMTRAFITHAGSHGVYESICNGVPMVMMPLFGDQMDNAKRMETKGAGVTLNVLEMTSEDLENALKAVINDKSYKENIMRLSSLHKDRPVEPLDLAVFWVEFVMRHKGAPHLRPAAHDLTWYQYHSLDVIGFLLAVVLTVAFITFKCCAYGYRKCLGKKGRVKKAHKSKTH

[2] = molecular target: Serine/threonine-protein kinase mTOR (Homo sapiens, UniProt P42345); assay: Inhibition of mTOR in HEK293 cells; type: cell-based
[3] = Antitumor activity against human multiple myeloma cells; type: functional
NSCLC = assay: Anticancer activity against human NSCLC cells; type: functional, cell-based
CYP450 = CYP450 (Homo sapiens, UniProt P04798+P05177+P05181+P08684+P10632+P10635+P11509+P11712+P13584+P20813+P20815+P20853+P24462+P24903+P33260+P33261+P51589+P78329+P98187+Q02928+Q08477+Q16678+Q16696+Q5TCH4+Q6VVX0+Q7Z449+Q8TAV3+Q96SQ9+Q9HB55); assay: Inhibition of CYP450 (unknown origin); type: ADME, protein assay
[4] = molecular target: T2, DNA polymerase alpha catalytic subunit (Homo sapiens, UniProt P09884); assay: Inhibition of human DNA polymerase-alpha (unknown origin)
T2 sequence (P09884 whole entry): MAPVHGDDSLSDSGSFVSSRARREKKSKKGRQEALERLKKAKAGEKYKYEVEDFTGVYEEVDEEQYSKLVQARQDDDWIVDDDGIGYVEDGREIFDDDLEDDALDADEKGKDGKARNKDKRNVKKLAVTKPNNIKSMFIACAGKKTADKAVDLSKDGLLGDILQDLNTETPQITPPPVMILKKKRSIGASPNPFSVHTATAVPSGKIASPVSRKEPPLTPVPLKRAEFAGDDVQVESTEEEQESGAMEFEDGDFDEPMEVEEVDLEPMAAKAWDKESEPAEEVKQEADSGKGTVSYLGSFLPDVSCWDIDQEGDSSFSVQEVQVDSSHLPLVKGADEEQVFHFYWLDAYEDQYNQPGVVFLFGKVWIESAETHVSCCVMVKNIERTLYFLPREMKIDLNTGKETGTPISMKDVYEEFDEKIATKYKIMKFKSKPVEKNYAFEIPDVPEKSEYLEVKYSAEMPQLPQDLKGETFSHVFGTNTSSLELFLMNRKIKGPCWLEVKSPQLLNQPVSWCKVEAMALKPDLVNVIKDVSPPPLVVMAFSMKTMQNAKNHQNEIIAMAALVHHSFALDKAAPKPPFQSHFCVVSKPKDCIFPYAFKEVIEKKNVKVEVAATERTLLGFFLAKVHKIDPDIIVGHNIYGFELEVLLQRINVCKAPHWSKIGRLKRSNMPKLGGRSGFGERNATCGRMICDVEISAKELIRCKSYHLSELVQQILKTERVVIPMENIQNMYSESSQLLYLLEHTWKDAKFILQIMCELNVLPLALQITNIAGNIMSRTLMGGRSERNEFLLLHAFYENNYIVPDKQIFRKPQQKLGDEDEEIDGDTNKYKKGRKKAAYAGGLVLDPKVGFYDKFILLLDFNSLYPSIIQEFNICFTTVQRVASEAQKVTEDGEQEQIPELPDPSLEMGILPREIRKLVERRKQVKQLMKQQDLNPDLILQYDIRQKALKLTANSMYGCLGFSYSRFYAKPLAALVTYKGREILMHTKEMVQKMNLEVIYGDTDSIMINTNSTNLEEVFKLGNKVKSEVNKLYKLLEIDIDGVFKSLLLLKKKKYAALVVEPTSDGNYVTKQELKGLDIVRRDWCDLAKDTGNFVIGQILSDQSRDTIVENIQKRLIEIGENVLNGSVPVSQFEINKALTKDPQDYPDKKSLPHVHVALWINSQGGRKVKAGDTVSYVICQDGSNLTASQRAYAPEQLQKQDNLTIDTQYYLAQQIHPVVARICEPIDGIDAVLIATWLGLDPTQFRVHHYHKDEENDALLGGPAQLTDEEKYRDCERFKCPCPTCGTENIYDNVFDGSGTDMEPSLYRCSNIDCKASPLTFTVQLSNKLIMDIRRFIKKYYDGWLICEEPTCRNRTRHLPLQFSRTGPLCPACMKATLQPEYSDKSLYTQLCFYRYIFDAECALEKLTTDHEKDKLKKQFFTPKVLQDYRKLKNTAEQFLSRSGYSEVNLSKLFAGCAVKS

[5] = Cytotoxicity against RSL3 resistance human HN3 cells assessed as reduction in cell viability; type: functional, cell-based
[6] = molecular target: T3, Phosphatidylinositol 3-kinase catalytic subunit type 3 (Homo sapiens, UniProt Q8NEB9); assay: Inhibition of Vps34 (unknown origin)
T3 sequence (Q8NEB9 whole entry): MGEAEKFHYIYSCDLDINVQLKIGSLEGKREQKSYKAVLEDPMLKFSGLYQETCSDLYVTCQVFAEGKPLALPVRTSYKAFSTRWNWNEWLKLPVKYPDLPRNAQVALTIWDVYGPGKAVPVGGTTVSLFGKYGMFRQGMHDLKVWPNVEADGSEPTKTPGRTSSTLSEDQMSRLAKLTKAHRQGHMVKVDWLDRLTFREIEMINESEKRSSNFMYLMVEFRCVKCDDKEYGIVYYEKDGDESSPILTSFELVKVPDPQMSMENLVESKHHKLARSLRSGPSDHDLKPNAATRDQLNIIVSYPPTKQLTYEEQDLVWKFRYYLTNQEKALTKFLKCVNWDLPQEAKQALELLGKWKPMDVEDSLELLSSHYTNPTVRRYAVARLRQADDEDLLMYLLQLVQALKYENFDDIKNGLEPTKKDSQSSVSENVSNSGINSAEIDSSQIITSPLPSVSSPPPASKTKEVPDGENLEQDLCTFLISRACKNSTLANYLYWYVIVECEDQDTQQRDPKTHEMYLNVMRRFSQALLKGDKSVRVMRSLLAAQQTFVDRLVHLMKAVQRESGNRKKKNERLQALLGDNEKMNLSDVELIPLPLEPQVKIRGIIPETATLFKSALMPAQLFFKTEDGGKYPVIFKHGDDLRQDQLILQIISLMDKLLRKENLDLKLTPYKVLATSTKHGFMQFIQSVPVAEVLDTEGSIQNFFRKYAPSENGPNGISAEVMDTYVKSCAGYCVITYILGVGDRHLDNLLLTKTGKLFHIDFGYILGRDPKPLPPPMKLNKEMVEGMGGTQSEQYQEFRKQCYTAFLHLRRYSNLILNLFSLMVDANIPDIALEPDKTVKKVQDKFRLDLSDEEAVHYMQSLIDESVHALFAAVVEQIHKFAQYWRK

[7] = molecular target: T3, Phosphatidylinositol 3-kinase catalytic subunit type 3; assay: Inhibition of Vps34 (unknown origin) interaction with PIK3 assessed as reduction in autophagy by increasing LC3 level
[8] = molecular target: T3, Phosphatidylinositol 3-kinase catalytic subunit type 3; assay: Inhibition of Vps34 in human MCF7-LC3 cells; type: cell-based

IC50 [1]: 0.97 µM
SMILES: C=CC(C)(C)c1cc(/C=C/C(=O)c2ccc(O)cc2)c(OC)cc1O [LICOAGROCHACONE A]

IC50 [2]: 0.005 to 0.006 µM
SMILES: CO[C@H]1C[C@@H]2CC[C@@H](C)[C@@](O)(O2)C(=O)C(=O)N2CCCC[C@H]2C(=O)O[C@H]([C@H](C)C[C@@H]2CC[C@@H](OCCO)[C@H](OC)C2)CC(=O)[C@H](C)/C=C(\C)[C@@H](O)[C@@H](OC)C(=O)[C@H](C)C[C@H](C)/C=C/C=C/C=C/1C [EVEROLIMUS]

SMILES: OCCNCc1ccc(OCc2ccc(F)cc2)c(OCc2ccc(F)cc2)c1
IC50 [3]: 4.6 µM

SMILES: COc1ccc(S(=O)(=O)Nc2cccnc2Nc2ccc(O)cc2)cc1 [ABT-751]
IC50 (NSCLC): 1.5 µM

IC50 (CYP450): 19 µM
SMILES: CCCC(C(=O)OCCN(CC)CC)(c1ccccc1)c1ccccc1 [PROADIFEN HYDROCHLORIDE]

IC50 [4]: 3.3 µM
SMILES: Oc1ccc(/C=C/c2cc(O)cc(O)c2)cc1 [RESVERATROL]

SMILES: COc1ccc(N(C(=O)CCl)C(C(=O)NCCc2ccccc2)c2cccs2)cc1Cl (stereo not given)
IC50 [5]: 5.8 µM | IC50 [6]: 0.025 µM | IC50 [7]: 0.018 µM

IC50 [8]: 0.019 µM
SMILES: Cc1cc(Nc2cc(Cl)nc(Oc3ccc([N+](=O)[O-])cc3)n2)n[nH]1
